Results taken from patent EP4613329A1, “COMPOUND FOR INHIBITING BRD PROTEIN” (Benobio Co., Ltd., priority 2024, dated 2025).

What was measured:
BRD2 (BD1) = target: T1, BRD2 (BD1) (Homo sapiens, UniProt P25440); experiment: Binding inhibitory effect on BRD2 protein (AlphaScreen, GST-BRD2 (BD1) / biotinylated acetyl-histone H4 peptide); conditions: 100 nM GST-BRD2 (BD1), 100 nM biotinylated acetyl-histone H4 (Lys5, 8, 12, 16) peptide
T1 construct: a bromodomain of BRD2 (BD1) and BRD3 (BD1), one of the BRD protein family

BRD3 (BD1) = target: T2, BRD3 (BD1) (Homo sapiens, UniProt Q15059); experiment: Binding inhibitory effect on BRD3 protein (same manner as Experimental Example 1-1)
T2 construct: a bromodomain of BRD2 (BD1) and BRD3 (BD1), one of the BRD protein family; GST

[1] = system: retinal degeneration mouse model; experiment: Electroretinogram (ERG) in blue LED-induced retinal degeneration mouse model; format: in vivo, albino BALB/c mice; conditions: compound 24 nM, Com. Ex. 4 25 mg/kg; for Wavelength enhanced multiple compared to normal saline-treated group, Average value: average of a-wave and b-wave, intravitreal; for Wavelength enhanced multiple compared to normal saline-treated group, a-wave / Wavelength enhanced multiple compared to normal saline-treated group, b-wave: single intravitreal injection 1 hour after LED exposure
Method: In order to fabricate a retinal degeneration model, 7-week-old male albino BALB/c mice were used. Three mice were randomly assigned to each test group, and light and dark were maintained at 12-hour intervals. Each mouse was dark-adapted for 24 hours and then the pupils were dilated with 0.5% tropicamide and 0.5% phenylephrine hydrochloride eye drops (Santen, Osaka, Japan) 30 minutes before blue LED exposure. Unanesthetized mice were exposed to 2,000 lux of a blue LED (460 ± 10 nm) for 2 hours in a cage with reflective interiors. The light intensity was measured using an LED photometer (model TM-201L, TENMARS Electronics, Taipei, Taiwan). After exposure to blue LED, the mice were kept in the dark for 24 hours and then resumed on a 12-hour light/dark cycle for 3 days.
In a test substance control test, mice with retinal degeneration were divided into a normal saline-administered group and a compound-administered group (24 nM) of the present disclosure, and 3 mice were randomly assigned to each test group. A positive control test was divided into a normal saline-administered group and an Eyela (25 mg/kg mouse body weight)-administered group (Comparative Example 4), and three mice were randomly assigned to each test group.
All test groups were administered as a single dose by intravitreal injection 1 hour after LED exposure.
That is, mice were stored in a completely dark room for 16 hours before ERG recordings. All animals were anesthetized intraperitoneally with zolazepam (20 mg/kg) and xylazine (7.5 mg/kg). The cornea was coated with hydroxypropyl methylcellulose gel and covered with a gold ring contact electrode. Ground and reference electrodes were disposed subcutaneously on the tail and ears, respectively. Stimuli were short white flashes delivered through a Ganzfeld stimulator (UTAS-3000; LKC Technologies, Gaithersburg, MD, USA). The signal was amplified and filtered through a digital band-pass filter in the range of 5 to 300 Hz to generate a and b waves. Scotopic ERG, and rod-mediated responses were obtained at increasing light intensities of 0.025 and 3.96 cd/s • m^2. Photopic, cone-mediated responses were obtained after 5-min light adaptation to background light intensity. The recordings were obtained at the light intensity of 6.28 cd/s • m^2. Each recording was the average of three responses obtained within a 15-second stimulation interval. A-wave amplitude was measured from a baseline to the maximum a-wave peak, and b-wave amplitude was measured from the maximum a-wave peak to the maximum b-wave peak.

[2] = system: macular degeneration animal model; experiment: Laser burn-induced macular degeneration animal model, OCT and FFA image analysis; format: in vivo, mouse; conditions: compounds 0.022 µg/eye, Com. Ex. 4 20 µg/eye
Method: After the mouse was subjected to general anesthesia, the eye was applied with anesthetic eye drops to be subjected to additional local anesthesia and additionally induce mydriasis. A macular degeneration animal model was prepared by destroying the Bruch's membrane by inducing laser burn according to macular degeneration induction conditions. […] On day 11 of macular degeneration induction, the mice were subjected to general anesthesia and then injected intraperitoneally with a fluorescent contrast agent. The mouse was placed on the sacrifice table, lubricating gel was dropped into the corresponding eye, and an OCT lens was brought into contact with the mouse's cornea. Image analysis for fluorescein fundus angiography (FFA) and OCT was performed using the Image-J program.

T2 sequence (Q15059 34-140 limits assumed, species assumed): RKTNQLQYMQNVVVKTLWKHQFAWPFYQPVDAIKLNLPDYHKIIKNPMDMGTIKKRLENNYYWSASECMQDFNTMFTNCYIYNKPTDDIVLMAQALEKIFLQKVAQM
T1 sequence (P25440 74-180 limits assumed, species assumed): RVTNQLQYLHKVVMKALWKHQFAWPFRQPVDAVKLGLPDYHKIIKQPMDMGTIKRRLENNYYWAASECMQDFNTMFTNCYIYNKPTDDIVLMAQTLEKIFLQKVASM

SMILES | IC50 (BRD2 (BD1)) | IC50 (BRD3 (BD1)) | Wavelength enhanced multiple compared to normal saline-treated group, Average value [1] | Wavelength enhanced multiple compared to normal saline-treated group, a-wave [1] | Wavelength enhanced multiple compared to normal saline-treated group, b-wave [1] | Lesion size compared to negative control group (FFA) ([2]; FFA imaging, day 11, negative control = excipient) | CTF value ([2]; FFA imaging, day 11 of macular degeneration induction, both eyes) | Lesion size compared to negative control group (OCT) ([2]; OCT imaging, day 11, negative control = excipient) | Volume of lesion ([2]; OCT imaging, day 11 of macular degeneration induction, both eyes)
CN1Cc2c(cccc2-c2ccccc2-c2ccc(CN3CCOCC3)o2)C1=O [Compound 13, 2-methyl-4-(2-(5-(morpholinomethyl)furan-2-yl)phenyl)isoindoline-1-one] | 7.65 µM | 3.65 µM | 1.33 | 1.29 | 1.36 | – | – | – | –
CCC1(C(=O)NC)CCCN(Cc2oc(-c3ccccc3-c3cccc4c3CN(C)C4=O)cc2C)C1 (stereo not drawn) [Compound 40] | 10.6 µM | 3.96 µM | 1.30 | 1.16 | 1.43 | – | – | – | –
CNC(=O)C1(C)CN(Cc2ccc(-c3ccccc3-c3cccc4c3CN(C)C4=O)o2)CCC1O (stereo not drawn) [Compound 25] | 7.68 µM | 1.29 µM | 1.27 | 1.52 | 1.01 | – | – | – | –
CNC(=O)C1(Cc2ccc(F)cc2)CCN(Cc2oc(-c3ccccc3-c3cccc4c3CN(C)C4=O)cc2C)CC1 [Compound 39, 2-methyl-4-(2-(5-((3-methyl(4-(4-fluorobenzyl)-4'-carboxamidyl)piperidine)methyl)furan-2-yl)phenyl)isoindoline-1-one] | 8.67 µM | 4.16 µM | 1.36 | 1.21 | 1.51 | – | – | – | –
CN1Cc2c(cccc2-c2ccccc2-c2ccc(CNCc3cnn(C)c3)o2)C1=O [Compound 18, 2-methyl-4-(2-(5-((((1-methyl-1H-pyrazole-4yl)methyl)amino)methyl)furan-2-yl)phenyl)isoindoline-1-one] | 6.51 µM | 2.67 µM | 2.04 | 2.05 | 2.03 | – | – | – | –
CNC(=O)C1(Cc2ccccc2)CCCN1Cc1ccc(-c2ccccc2-c2cccc3c2CN(C)C3=O)o1 (stereo not drawn) [Compound 28] | 10.9 µM | 4.36 µM | 1.33 | 1.31 | 1.35 | 35.40% | 325,936 Pixels | 51.99% | 1,132,542 µm^3
CN1Cc2c(cccc2-c2ccccc2-c2ccc(COCN3CCC(F)(F)CC3)o2)C1=O [Compound 37, 2-methyl-4-(2-(5-((((4,4-difluoropiperidine-1-yl)methoxy)-3-carboxamidyl)methyl)furan-2-yl)phenyl)isoindoline-1-one] | 9.5 µM | 4.76 µM | 1.38 | 1.45 | 1.31 | – | – | – | –
